In patent US7977325B2, “3-amino-pyrazolo[3,4b]pyridines as inhibitors of protein tyrosine kinases, their production and use as pharmaceutical agents” (Bayer Schering Pharma AG, priority 2004, dated 2011):
Where two headings read alike, the source gives them in different places.

Molecular target: T1, recombinant EphB4 kinase (Homo sapiens, UniProt P54760)
T1 construct: purchased ProQinase GmbH, Freiburg, Germany
T1 sequence (P54760 16-987): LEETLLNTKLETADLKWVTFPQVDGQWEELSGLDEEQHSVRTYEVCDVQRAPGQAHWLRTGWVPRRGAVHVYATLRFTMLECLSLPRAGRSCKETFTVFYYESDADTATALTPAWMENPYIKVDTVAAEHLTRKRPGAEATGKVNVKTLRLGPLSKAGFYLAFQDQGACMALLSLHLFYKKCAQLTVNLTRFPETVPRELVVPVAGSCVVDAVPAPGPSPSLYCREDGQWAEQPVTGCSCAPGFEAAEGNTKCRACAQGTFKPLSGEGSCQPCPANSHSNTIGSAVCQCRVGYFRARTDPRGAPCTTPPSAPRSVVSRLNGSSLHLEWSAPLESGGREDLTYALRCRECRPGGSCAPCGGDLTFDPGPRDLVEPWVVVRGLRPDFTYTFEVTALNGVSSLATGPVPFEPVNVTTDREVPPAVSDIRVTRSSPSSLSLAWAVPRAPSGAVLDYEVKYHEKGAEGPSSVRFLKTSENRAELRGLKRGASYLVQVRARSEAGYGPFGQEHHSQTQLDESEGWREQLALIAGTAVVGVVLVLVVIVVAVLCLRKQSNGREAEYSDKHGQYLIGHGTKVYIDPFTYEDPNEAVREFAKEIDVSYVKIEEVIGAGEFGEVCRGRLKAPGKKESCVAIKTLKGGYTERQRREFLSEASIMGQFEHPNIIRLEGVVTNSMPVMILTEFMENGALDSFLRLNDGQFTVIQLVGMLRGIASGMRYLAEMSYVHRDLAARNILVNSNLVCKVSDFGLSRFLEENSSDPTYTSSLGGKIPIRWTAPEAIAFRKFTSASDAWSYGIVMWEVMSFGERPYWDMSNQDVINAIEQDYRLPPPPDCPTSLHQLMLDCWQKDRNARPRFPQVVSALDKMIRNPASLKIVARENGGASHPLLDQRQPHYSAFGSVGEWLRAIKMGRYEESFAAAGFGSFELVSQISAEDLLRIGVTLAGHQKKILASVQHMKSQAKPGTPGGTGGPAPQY
Assay: Test System for EphB4 (HTRF kinase assay)
Format: biochemical
Conditions: polyGluAlaTyr substrate, 2 μmol of ATP
Method: A mixture that consists of 20 ng/ml of recombinant EphB4 kinase (related to ProQinase GmbH, Freiburg, Germany), 2.67 μg/ml of polyGluAlaTyr, 2 μmol of ATP, 25 mmol of HEPES (pH 7.3), 5 mmol of MgCl2, 1 mmol of MnCl2, 2 mmol of DTT, 0.1 mmol of NaVO4, 1% (v/v) glycerol, 0.02% NP40, EDTA-free protease inhibitors (Complete Fa. [Company] Roche, 1 tablet in 50 ml) is incubated at 20° C. for 10 minutes. Test substances are dissolved in 100% DMSO and introduced in 0.017× volume before the beginning of the reaction. 60 minutes after the addition of 1.7× volume of a solution of 50 mmol of Hepes, pH 7.0, 0.2% BSA, 0.14 μg/ml of PT66-europium, 3.84 μg/ml of SA-XL665, and 75 mmol of EDTA, the batch is measured in a Discovery HTRF-measuring device of the PerkinElmer Company.

[1] = read-out: IC50 of EphB4 kinase inhibition (stated as upper bound)

IC50 (read-out: IC50 of EphB4 kinase inhibition) [µM] | IC50 [1] [µM] | Compound
6.1 | < 10 | COc1cccc(-c2cc(C(C)(C)C)nc3[nH]nc(N)c23)c1 [Example 6, 6-tert-Butyl-4-(3-methoxyphenyl)-1H-pyrazolo[3,4b]pyridin-3-ylamine]
 | < 10 | Cc1ccc(-c2cc(C3CCC(=O)CC3)nc3[nH]nc(N)c23)cc1 [Example 12, 4-(3-Amino-4-p-tolyl-1H-pyrazolo[3,4b]pyridin-6-yl)-cyclohexanone]
 | < 10 | Cc1ccc(-c2cc(C3CCC(N4CCNCC4)CC3)nc3[nH]nc(N)c23)cc1 (centres unmarked) [Example 14, 6-(4-piperazin-1-yl-cyclohexyl)-4-p-tolyl-1H-pyrazolo[3,4b]pyridin-3-ylamine]
 | < 10 | Cc1ccc(-c2cc(C3CCC(N4CCCCC4)CC3)nc3[nH]nc(N)c23)cc1 (centres unmarked) [Example 16, 6-(4-Piperidin-1-yl-cyclohexyl)-4-p-tolyl-1H-pyrazolo[3,4b]pyridin-3-ylamine]
 | < 10 | COc1cc(O)cc(-c2cc(-c3ccncc3)nc3[nH]nc(N)c23)c1 [Example 33, 3-(3-Amino-6-pyridin-4-yl-1H-pyrazolo[3,4-b]pyridin-4-yl)-5-methoxyphenol]
 | < 10 | Cc1ccc(O)cc1-c1cc(-c2ccncc2)nc2[nH]nc(N)c12 [Example 35, 3-(3-Amino-6-pyridin-4-yl-1H-pyrazolo[3,4-b]pyridin-4-yl)-4-methyl-phenol]
 | < 10 | COc1cc(OC)cc(-c2cc(C(C)(C)C)nc3[nH]nc(N)c23)c1 [Example 39, 6-tert-Butyl-4-(3,5-dimethoxyphenyl)-1H-pyrazolo[3,4-b]pyridin-3-ylamine]
 | < 10 | CC(C)Oc1cc(O)cc(-c2cc(C(C)(C)C)nc3[nH]nc(N)c23)c1 [Example 40]
 | < 10 | CC(C)(C)c1cc(-c2cc(O)ccc2[N+](=O)[O-])c2c(N)n[nH]c2n1 [Example 41, 3-(3-Amino-6-tert-butyl-1H-pyrazolo[3,4b]pyridin-4-yl)-4-nitro-phenol]
 | < 10 | Nc1n[nH]c2nc(C3CC3)cc(-c3ccc(Cl)c(Cl)c3)c12 [Example 51, 6-Cyclopropyl-4-(3,4-dichlorophenyl)-1H-pyrazolo[3,4-b]pyridin-3-ylamine]
